Laboratory results published in publication PMC4397719 (Pharmacogenomics and Personalized Medicine, 2015).

What was measured:
[1] = test system: normal immune cells (splenocyte immune cell subpopulations); details: 15 nM to 100 μM, 4 hours
CD-3e+ T-cells = assay: Flow cytometry viability; format: cell-based, mouse; details: 4 hours; for sensitivity of T-cells (viability) compared to other cell populations: 15 nM to 100 μM

SMILES	toxicity to normal immune cells (viability) [1]	sensitivity of T-cells (viability) compared to other cell populations (CD-3e+ T-cells)	IC50 (viability) (CD-3e+ T-cells; T-cells, highest concentration of 100 μM, 36 strains)
Cn1c(=O)n(-c2ccc(C(C)(C)C#N)cc2)c2c3cc(-c4cnc5ccccc5c4)ccc3ncc21 [BEZ-235]	less toxic to normal immune cells than the anthracycline agents	less sensitive and less variable	–
COc1cccc2c1C(=O)c1c(O)c3c(c(O)c1C2=O)C[C@@](O)(C(=O)CO)C[C@@H]3O[C@H]1C[C@H](N)[C@H](O)[C@H](C)O1 [doxorubicin]	–	least sensitive	few strains reaching the IC50 at the highest concentration of 100 μM
CC(=O)[C@]1(O)Cc2c(O)c3c(c(O)c2[C@@H](O[C@H]2C[C@H](N)[C@H](O)[C@H](C)O2)C1)C(=O)c1ccccc1C3=O [idarubicin]	–	less sensitive than B-cells	–
Cn1cnc2c(F)c(Nc3ccc(Br)cc3Cl)c(C(=O)NOCCO)cc21 [selumetinib]	less toxic to normal immune cells than the anthracycline agents	less sensitive and less variable	–
